Results published in PMC10053286, “The Importance of Epigallocatechin as a Scaffold for Drug Development against Flaviviruses” (Pharmaceutics, 2023).
Like-named read-outs stand apart in the source and are kept apart here.

What was measured:
[1] = target: T1, YFV NS2B/NS3pro (Yellow fever virus, UniProt Q1X881); assay: biochemical
[2] = target: T2, ZIKV NS2B/NS3pro (Zika virus, UniProt A0A024B7W1); assay type: binding
[3] = target: T3, DENV2 NS2B/NS3pro (Dengue virus type 2, UniProt P14340); assay: biochemical
T3 sequence (P14340 1394-1440 limits assumed): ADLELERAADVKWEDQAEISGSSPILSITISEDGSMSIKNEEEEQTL
T3 sequence (P14340 1476-1660 limits assumed): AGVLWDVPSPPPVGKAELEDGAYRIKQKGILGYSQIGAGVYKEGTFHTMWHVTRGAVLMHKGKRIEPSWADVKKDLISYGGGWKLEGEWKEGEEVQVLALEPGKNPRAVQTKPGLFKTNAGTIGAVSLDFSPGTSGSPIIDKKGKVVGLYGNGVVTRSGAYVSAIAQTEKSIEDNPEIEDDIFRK

[4] = target: T2, ZIKV NS2B/NS3pro; assay: Surface plasmon resonance dissociation constant; assay type: binding
[5] = target: T1, YFV NS2B/NS3pro; assay: biochemical; assay type: binding
[6] = target: T3, DENV2 NS2B/NS3pro; assay: Surface plasmon resonance dissociation constant; assay type: binding
[7] = target: T3, DENV2 NS2B/NS3pro; assay type: binding
[8] = target: T4, WNV NS2B/NS3pro (West Nile virus, UniProt P06935); assay: biochemical; assay type: biochemical
T4 sequence (P06935 1420-1465): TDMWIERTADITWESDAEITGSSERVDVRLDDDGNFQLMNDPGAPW
T4 sequence (P06935 1502-1671): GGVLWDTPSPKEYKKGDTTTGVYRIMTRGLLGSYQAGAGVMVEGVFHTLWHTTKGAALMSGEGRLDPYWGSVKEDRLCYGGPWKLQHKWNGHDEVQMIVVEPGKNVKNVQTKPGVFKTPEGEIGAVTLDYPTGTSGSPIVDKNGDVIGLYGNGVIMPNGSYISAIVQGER

[9] = target: T1, YFV NS2B/NS3pro; assay type: binding
[10] = target: T2, ZIKV NS2B/NS3pro; assay: biochemical
[11] = target: T4, WNV NS2B/NS3pro; assay: Surface plasmon resonance dissociation constant; assay type: binding
[12] = target: T2, ZIKV NS2B/NS3pro; settings: Li and collaborators; cited from earlier work

T1 sequence (Q1X881 1402-1449 limits assumed): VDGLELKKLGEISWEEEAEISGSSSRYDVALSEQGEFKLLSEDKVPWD
T1 sequence (Q1X881 1491-1660 limits assumed): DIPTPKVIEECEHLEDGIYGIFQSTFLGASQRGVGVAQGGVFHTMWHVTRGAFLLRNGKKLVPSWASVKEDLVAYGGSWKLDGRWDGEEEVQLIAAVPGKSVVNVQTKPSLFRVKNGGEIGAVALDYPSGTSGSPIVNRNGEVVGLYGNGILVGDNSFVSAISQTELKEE
T2 sequence (A0A024B7W1 1421-1467): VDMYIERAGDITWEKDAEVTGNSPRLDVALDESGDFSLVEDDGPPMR
T2 sequence (A0A024B7W1 1503-1672): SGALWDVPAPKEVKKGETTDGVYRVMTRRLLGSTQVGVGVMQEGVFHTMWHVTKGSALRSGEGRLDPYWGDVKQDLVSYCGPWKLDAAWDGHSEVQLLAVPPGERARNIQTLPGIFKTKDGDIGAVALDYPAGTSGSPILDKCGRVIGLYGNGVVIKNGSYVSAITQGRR

Row | SMILES | IC50 [1] [µM] | Inhibition Mode [1] | Trp emission band after titration of the molecule (excitation shift) [2] | IC50 [3] [µM] | Inhibition Mode [3] | Kd [4] [µM] | Kd [5] [µM] | Kd [6] [µM] | Trp emission band after titration of the molecule (excitation shift) [7] | IC50 [8] [µM] | Inhibition Mode [8] | Trp emission band after titration of the molecule (excitation shift) [9] | IC50 [10] [µM] | Inhibition Mode [10] | Kd [11] [µM] | IC50 [12] [µM]
1 | CC(=O)Oc1cc(OC(C)=O)c2c(c1)O[C@H](c1cc(OC(C)=O)c(OC(C)=O)c(OC(C)=O)c1)[C@H](OC(=O)c1cc(OC(C)=O)c(OC(C)=O)c(OC(C)=O)c1)C2 [AcEGCG, EGCG octaacetate] | 39.1 ± 2.2 | Noncompetitive | 360 nm | 39.8 ± 2.5 | Noncompetitive | 4.8 | 0.47 | 2.4 | 360 nm | 83.4 ± 10.4 | Noncompetitive | 360 nm | 102 ± 2.6 | Noncompetitive | 0.98 | –
2 | O=C(O[C@@H]1Cc2c(O)cc(O)cc2O[C@@H]1c1ccc(O)c(O)c1)c1cc(O)c(O)c(O)c1 [ECG, epicatechin gallate] | – | – | – | – | – | – | – | – | – | – | – | – | – | – | – | 89
3 | Oc1cc(O)c2c(c1)O[C@H](c1cc(O)c(O)c(O)c1)[C@H](O)C2 [EGC, epigallocatechin] | 19 ± 1.9 | Competitive | no excitation shift | 145 ± 3 | Competitive | 0.02 | 0.27 | 0.03 | no excitation shift | 17.3 ± 2.5 | Competitive | no excitation shift | 8.9 ± 1.2 | Competitive | 0.22 | –
4 | O=C(O[C@@H]1Cc2c(O)cc(O)cc2O[C@@H]1c1cc(O)c(O)c(O)c1)c1cc(O)c(O)c(O)c1 [EGCG, Epigallocatechin gallate] | 8 ± 1.4 | Noncompetitive | – | 6.3 ± 1 | Noncompetitive | 0.09 | 0.06 | 0.07 | – | – | Noncompetitive | – | 4.5 ± 0.6 | Noncompetitive | – | –
